Source: patent US8883782B2, “Spiro-tetracyclic ring compounds as beta-secretase modulators and methods of use” (Amgen Inc., priority 2010, dated 2014)
Like-named read-outs stand apart in the source and are kept apart here.

Key:
[1] = biological target: Beta Secretase enzyme (BACE) (Homo sapiens, UniProt P56817); assay: In vitro enzymatic BACE FRET (fluorescence resonance energy transfer) assay; assay type: biochemical
Procedure, shortened: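 Fluorescence read after Tris quench to neutral pH. Reaction: 50 nM fluorophore/quencher peptide substrate, 1 h, in 0.05 M acetate pH 4.2, 10% DMSO final, 100 uM genapol.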

[2] = system: Aβ40 in conditioned medium of cells stably expressing Amyloid Precursor Protein (APP); assay: In vitro BACE cell-based assay (Aβ40 in conditioned medium, sandwich ELISA)
Procedure, shortened: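 Quantification relied on pAb40/6E10 sandwich ELISA with Europium fluorescence counts, and IC50 was fitted versus concentration.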

[3] = average IC50, enzyme assay, read-out: BACE 1 FRET assay
[4] = Homo sapiens, HEK293, average IC50, HEK cells, read-out: HEK cell assay
[5] = average IC50, HEK cells, read-out: HEK cell assay

Beta Secretase enzyme (BACE), sequence (P56817 46-501, species assumed): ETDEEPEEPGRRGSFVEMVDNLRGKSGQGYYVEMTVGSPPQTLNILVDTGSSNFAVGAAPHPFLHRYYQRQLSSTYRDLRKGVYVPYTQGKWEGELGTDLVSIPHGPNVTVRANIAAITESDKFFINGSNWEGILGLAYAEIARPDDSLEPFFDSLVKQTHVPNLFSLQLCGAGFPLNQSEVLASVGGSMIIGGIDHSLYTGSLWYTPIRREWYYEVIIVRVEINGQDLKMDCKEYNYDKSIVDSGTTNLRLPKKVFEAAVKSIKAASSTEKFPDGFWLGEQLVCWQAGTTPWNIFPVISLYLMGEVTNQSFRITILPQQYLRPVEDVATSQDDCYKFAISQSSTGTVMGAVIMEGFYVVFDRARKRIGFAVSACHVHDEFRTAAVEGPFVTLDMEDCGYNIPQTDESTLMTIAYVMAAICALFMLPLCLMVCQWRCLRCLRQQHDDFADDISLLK

SMILES	IC50 [1, 3]	IC50 [2, 4]	IC50 ([1]; BACE 1 FRET assay (uM))	IC50 ([2]; Homo sapiens, HEK293, read-out: HEK cell assay (uM), average IC50, HEK cells)	IC50 [2, 5]
NC1=N[C@@]2(CO1)c1cc(-c3cccnc3F)ccc1Oc1cnc(-c3cncnc3)cc12 [Example 571, (5S)-7-(2-fluoro-3-pyridinyl)-3-(5-pyrimidinyl)spiro[chromeno[2,3-c]pyridine-5,4′-[1,3]oxazol]-2′-amine]	0.0066 µM	0.11 µM	–	–	–
NC1=N[C@@]2(CO1)c1cc(-c3cccnc3F)ccc1Oc1cnc(-c3ccncc3F)cc12 [Example 572, (5S)-7-(2-fluoro-3-pyridinyl)-3-(3-fluoro-4-pyridinyl)spiro[chromeno[2,3-c]pyridine-5,4′-[1,3]oxazol]-2′-amine]	0.0118 µM	0.148 µM	–	–	–
NC1=N[C@@]2(CO1)c1cc(-c3ccncc3F)ccc1Oc1cnc(-c3ccnc(F)c3)cc12 [Example 573, (5S)-3-(2-fluoro-4-pyridinyl)-7-(3-fluoro-4-pyridinyl)spiro[chromeno[2,3-c]pyridine-5,4′-[1,3]oxazol]-2′-amine]	0.0708 µM	0.801 µM	–	–	–
NC1=N[C@@]2(CO1)c1cc(-c3ccncc3F)ccc1Oc1cnc(-c3cccnc3F)cc12 [Example 574, (5S)-3-(2-fluoro-3-pyridinyl)-7-(3-fluoro-4-pyridinyl)spiro[chromeno[2,3-c]pyridine-5,4′-[1,3]oxazol]-2′-amine]	0.856 µM	2.23 µM	–	–	–
NC1=N[C@@]2(CO1)c1cc(-c3ccncc3F)ccc1Oc1cnc(-c3cncc(F)c3)cc12 [Example 575, (5S)-7-(3-fluoro-4-pyridinyl)-3-(5-fluoro-3-pyridinyl)spiro[chromeno[2,3-c]pyridine-5,4′-[1,3]oxazol]-2′-amine]	0.083 µM	0.971 µM	–	–	–
NC1=N[C@]2(CS1)c1cc(-c3cccnc3F)ccc1Oc1ncc(C3=CCOCC3)cc12 [Example 577, (5R)-3-(3,6-dihydro-2H-pyran-4-yl)-7-(2-fluoro-3-pyridinyl)spiro[chromeno[2,3-b]pyridine-5,4′-[1,3]thiazol]-2′-amine]	0.0017 µM	0.0164 µM	–	–	–
NC1=N[C@]2(CS1)c1cc(I)ccc1Oc1ncc(Br)cc12 [Example 579, (5R)-3-bromo-7-iodospiro[chromeno[2,3-b]pyridine-5,4′-[1,3]thiazol]-2′-amine]	1.93 µM	3.18 µM	–	–	–
Cc1ccc(-c2cnc3c(c2)[C@]2(CSC(N)=N2)c2cc(-c4cccnc4F)ccc2O3)cn1 [Example 582, (5S)-7-(2-fluoro-3-pyridinyl)-3-(6-methyl-3-pyridinyl)spiro[chromeno[2,3-b]pyridine-5,4′-[1,3]thiazol]-2′-amine]	0.002 µM	0.005 µM	–	–	–
Cn1cc(-c2cnc3c(c2)[C@]2(CSC(N)=N2)c2cc(-c4cccnc4F)ccc2O3)cn1 [Example 584, (5S)-7-(2-fluoro-3-pyridinyl)-3-(1-methyl-1H-pyrazol-4-yl)spiro[chromeno[2,3-b]pyridine-5,4′-[1,3]thiazol]-2′-amine]	0.002 µM	0.0159 µM	–	–	–
NC1=N[C@]2(CS1)c1cc(-c3cccnc3)ccc1Oc1ncc(C3=CCOCC3)cc12 [Example 585, (5R)-3-(3,6-dihydro-2H-pyran-4-yl)-7-(3-pyridinyl)spiro[chromeno[2,3-b]pyridine-5,4′-[1,3]thiazol]-2′-amine]	0.0025 µM	0.0181 µM	–	–	–
NC1=N[C@@]2(CS1)c1cc(-c3cccnc3F)ccc1Oc1cnc(C3=CCOCC3)cc12 [Example 590, (5S)-3-(3,6-dihydro-2H-pyran-4-yl)-7-(2-fluoro-3-pyridinyl)spiro[chromeno[2,3-c]pyridine-5,4′-[1,3]thiazol]-2′-amine]	–	–	0.0007 µM	0.0093 µM	–
NC1=N[C@@]2(CS1)c1cc(-c3cccc(Cl)c3)ccc1Oc1cnc(C3=CCOCC3)cc12 [Example 591, (5S)-7-(3-chlorophenyl)-3-(3,6-dihydro-2H-pyran-4-yl)spiro[chromeno[2,3-c]pyridine-5,4′-[1,3]thiazol]-2′-amine]	0.0007 µM	0.0733 µM	–	–	–
NC1=N[C@@]2(CS1)c1cc(-c3cncc(F)c3)ccc1Oc1cnc(C3=CCOCC3)cc12 [Example 592, (5S)-3-(3,6-dihydro-2H-pyran-4-yl)-7-(5-fluoro-3-pyridinyl)spiro[chromeno[2,3-c]pyridine-5,4′-[1,3]thiazol]-2′-amine]	0.0009 µM	–	–	–	0.0213 µM
CC1(C#Cc2cc(F)c3c(c2)[C@]2(COC(N)=N2)c2cc(-c4ccc(F)nc4)ccc2O3)COC1 [Example 598]	0.0041 µM	0.032 µM	–	–	–
CC1(C#Cc2cc(F)c3c(c2)[C@]2(COC(N)=N2)c2cc(-c4cncc(F)c4)ccc2O3)COC1 [Example 599, (4S)-4′-fluoro-7′-(5-fluoro-3-pyridinyl)-2′-((3-methyl-3-oxetanyl)ethynyl)spiro[1,3-oxazole-4,9′-xanthen]-2-amine]	0.0011 µM	0.011 µM	–	–	–
NC1=N[C@@]2(CO1)c1cc(-c3cc(F)cnc3F)ccc1Oc1cnc(C3=CCOCC3)cc12 [Example 600, (5S)-7-(2,5-difluoro-3-pyridinyl)-3-(3,6-dihydro-2H-pyran-4-yl)spiro[chromeno[2,3-c]pyridine-5,4′-[1,3]oxazol]-2′-amine]	0.0177 µM	0.165 µM	–	–	–
NC1=N[C@]2(CS1)c1cc(-c3cccnc3)ccc1Oc1ncc(N3CCOCC3)cc12 [Example 601, (5R)-3-(4-morpholinyl)-7-(3-pyridinyl)spiro[chromeno[2,3-b]pyridine-5,4′-[1,3]thiazol]-2′-amine]	2.29 µM	0.724 µM	–	–	–
NC1=N[C@@]2(CS1)c1cc(-c3cccnc3F)ccc1Oc1cnc(C3=CCOCC3)cc12 [Example 614, (5S)-3-(3,6-dihydro-2H-pyran-4-yl)-7-(2-fluoro-3-pyridinyl)spiro[chromeno[2,3-c]pyridine-5,4′-[1,3]thiazol]-2′-amine]	0.0003 µM	–	–	–	0.005 µM

More lines, main results first:

IC50 [1, 3]	IC50 [2, 4]	SMILES	IC50 ([1]; BACE 1 FRET assay (uM))	IC50 ([2]; Homo sapiens, HEK293, read-out: HEK cell assay (uM), average IC50, HEK cells)	IC50 [2, 5]
0.0028 µM	0.017 µM	NC1=N[C@@]2(CS1)c1cc(-c3cccnc3)ccc1Oc1ncc(N3CCOCC3)cc12 [Example 602, (5S)-3-(4-morpholinyl)-7-(3-pyridinyl)spiro[chromeno[2,3-b]pyridine-5,4′-[1,3]thiazol]-2′-amine]	–	–	–
0.0087 µM	0.188 µM	NC1=N[C@@]2(CS1)c1cc(-c3cccnc3F)ccc1Oc1ncc(Br)cc12 [Example 603, (5S)-3-bromo-7-(2-fluoro-3-pyridinyl)spiro[chromeno[2,3-b]pyridine-5,4′-[1,3]thiazol]-2′-amine]	–	–	–
0.0006 µM	0.005 µM	CC1(COc2cc(F)c3c(c2)[C@]2(COC(N)=N2)c2cc(-c4cnccc4F)ccc2O3)COC1 [Example 604, (4S)-4′-fluoro-7′-(4-fluoro-3-pyridinyl)-2′-((3-methyl-3-oxetanyl)methoxy)spiro[1,3-oxazole-4,9′-xanthen]-2-amine]	–	–	–
0.0008 µM	0.01 µM	CC(C)(C#N)COc1cc(F)c2c(c1)[C@]1(COC(N)=N1)c1cc(-c3cnccc3F)ccc1O2 [Example 605, 3-(((4S)-2-amino-4′-fluoro-7′-(4-fluoro-3-pyridinyl)spiro[1,3-oxazole-4,9′-xanthen]-2′-yl)oxy)-2,2-dimethylpropanenitrile]	–	–	–
0.813 µM	0.279 µM	COc1cc(F)c2c(c1)[C@]1(CSC(N)=N1)c1cc(Br)ccc1O2 [Example 606, (4S)-7′-bromo-4′-fluoro-2′-methoxyspiro[1,3-thiazole-4,9′-xanthen]-2-amine]	–	–	–
0.0051 µM	0.07 µM	COc1nccc(-c2cc(F)c3c(c2)[C@]2(COC(N)=N2)c2cc(-c4cccnc4F)ccc2O3)n1 [Example 607, (4S)-4′-fluoro-7′-(2-fluoro-3-pyridinyl)-2′-(2-methoxy-4-pyrimidinyl)spiro[1,3-oxazole-4,9′-xanthen]-2-amine]	–	–	–
0.0036 µM	0.162 µM	COc1cc(F)c2c(c1)[C@]1(CSC(N)=N1)c1cc(-c3cccnc3F)ccc1O2 [Example 608, (4S)-4′-fluoro-7′-(2-fluoro-3-pyridinyl)-2′-methoxyspiro[1,3-thiazole-4,9′-xanthen]-2-amine]	–	–	–
0.0004 µM	0.015 µM	CC(C)(C)COc1cc2c(cn1)Oc1ccc(-c3cccnc3F)cc1[C@@]21COC(N)=N1 [Example 609, (5S)-3-(2,2-dimethylpropoxy)-7-(2-fluoro-3-pyridinyl)spiro[chromeno[2,3-c]pyridine-5,4′-[1,3]oxazol]-2′-amine]	–	–	–
0.116 µM	1.13 µM	CC(C)(C)COc1cc2c(cn1)Oc1ccc(-c3cccnc3F)cc1[C@]21COC(N)=N1 [Example 610, (5R)-3-(2,2-dimethylpropoxy)-7-(2-fluoro-3-pyridinyl)spiro[chromeno[2,3-c]pyridine-5,4′-[1,3]oxazol]-2′-amine]	–	–	–
0.0061 µM	2.95 µM	NC1=NC2(CS1)c1cc(-c3cccnc3F)ccc1Oc1c2cc(Cl)nc1F (stereo not drawn) [Example 611, 3-chloro-1-fluoro-7-(2-fluoro-3-pyridinyl)spiro[chromeno[2,3-c]pyridine-5,4′-[1,3]thiazol]-2′-amine]	–	–	–
0.0006 µM	0.003 µM	COc1ccnc(F)c1-c1ccc2c(c1)[C@@]1(COC(N)=N1)c1cc(C3=CCOCC3)ncc1O2 [Example 612, (5S)-3-(3,6-dihydro-2H-pyran-4-yl)-7-(2-fluoro-4-methoxy-3-pyridinyl)spiro[chromeno[2,3-c]pyridine-5,4′-[1,3]oxazol]-2′-amine]	–	–	–
0.227 µM	2.56 µM	NC1=N[C@]2(CS1)c1cc(-c3cccnc3F)ccc1Oc1cnc(C3=CCOCC3)cc12 [Example 613, (5R)-3-(3,6-dihydro-2H-pyran-4-yl)-7-(2-fluoro-3-pyridinyl)spiro[chromeno[2,3-c]pyridine-5,4′-[1,3]thiazol]-2′-amine]	–	–	–
